Test results: publication PMC6397244, “Peptide Assembly on the Membrane Determines the HIV-1 Inhibitory Activity of Dual-Targeting Fusion Inhibitor Peptides” (Scientific Reports, 2019)
Ends that are not written are not given here.

Experiments:
[1] = system: CM235 (HIV pseudotype, Env pCM235/GS); conditions: CM235 (R5, subtype A/E); TZM-bl, peptide 1 h before and during infection, luciferase read-out 48 h after infection; duplicates
Excerpt: (§1) The anti-HIV activities of DT-peptides and E1 were comparatively tested against a set of viral pseudotypes carrying HIV envelopes from HIV subtype A, B, C and A/E (Table 1) in the TZM-bl reporter cell line.
(§2) The preparation of the HIV-1 Env pseudotyped virus stocks in a GCLP- (Good Clinical Laboratory Practice) compliant manner occurred as described previously. This includes the pseudoviruses listed in Table 2 with the Env sequences HXB2, AC10.0.29, Q461.e2, Q23.17, CAP210.2.00.E8 and CM235.c11 as well as the Env deficient backbone plasmid pSG3ΔEnv. Within this study the titration assay to determine the virus dilution at a relative luminescence unit (RLU) of 150,000 was performed according to the method described before[34]–[36] and the luminescence was measured using the Infinite F200 microplate reader.
(§3) Peptides were tested for their antiviral activities against a panel of HIV pseudotypes carrying different HIV envelope proteins (Table 2) in the TZM-bl indicator cell line. Briefly, 10-fold serial dilutions of the compounds (0.001–10 µM) were incubated in duplicates with the cells in 96-well plates. 1 h after incubation, cell culture medium was replaced and cells were infected with the different pseudotypes together with fresh compounds. […] 48 h after infection, cells were washed and luciferase was quantified using the Britelite Plus Luciferase Assay System (PerkinElmer). Luciferase values were normalized to DMSO control. Cell viability was estimated in parallel in non-infected TZM-bl cells with the Cell Titer Glo ATPase kit (Promega). CC50 and EC50 values ± SEM were calculated with GraphPad Prism, using the built-in function log (inhibitor) vs. normalized response.

[2] = system: Q23 (HIV pseudotype, Env pQ23.17); conditions: Q23 (R5, subtype A); TZM-bl, peptide 1 h before and during infection, luciferase read-out 48 h after infection; duplicates
Excerpt: as §1, §2, §3

[3] = system: Q461 (HIV pseudotype, Env pQ461.e2); conditions: Q461 (R5, subtype A); TZM-bl, peptide 1 h before and during infection, luciferase read-out 48 h after infection; duplicates
Excerpt: as §1, §2, §3

[4] = system: HXB2 (HIV pseudotype, Env pHXB2); conditions: HXB2 (X4, subtype B); TZM-bl, peptide 1 h before and during infection, luciferase read-out 48 h after infection; duplicates
Excerpt: as §1, §2, §3

[5] = system: AC10 (HIV pseudotype, Env pAC10.0); conditions: AC10 (R5, subtype B); TZM-bl, peptide 1 h before and during infection, luciferase read-out 48 h after infection; duplicates
Excerpt: as §1, §2, §3

[6] = system: CAP210 (HIV pseudotype, Env pCAP210.2); conditions: CAP210 (R5, subtype C); TZM-bl, peptide 1 h before and during infection, luciferase read-out 48 h after infection; duplicates
Excerpt: as §1, §2, §3

[7] = membrane affinity / partition, intrinsic Trp fluorescence on titration with POPC liposomes; format: physicochemical; conditions: 5 µM peptide, POPC LUVs 0.05–0.6 mM, 20 °C; for apparent mole fraction partition coefficient KX: intrinsic Trp fluorescence (ex 280 nm), PBS 0.01 M pH 7.4 (method) / HEPES, triplicate
Method: Unilamellar vesicles (LUV) composed of the negatively charged phospholipid 1-palmitoyl-2-oleoyl-sn-glycero-3-phospho-(1′-rac-glycerol) (POPG) or zwitteronic phospholipid palmitoyl-2-oleoyl-sn-glycero-3-phosphocholine (POPC) (both from Avanti Polar-Lipids) were prepared as model membranes. Lipids (10 mM) were dissolved in chloroform/methanol (2/1, v/v) solution. The solvent was evaporated under reduced pressure. A buffer solution of PBS 0.01 M pH 7.4 was added to the previously obtained lipid film to prompt the spontaneous formation of multilamellar vesicles that were subjected to a process of 10 freeze and thaw cycles. The liposomes were then subjected to an extrusion process through 100-nm pore-sized polycarbonate filters in a high-pressure extruder.
To carry out membrane partition studies with DT-peptides, emission fluorescence spectra were recorded for DT-peptides in PBS (0.01 M, pH 7.4) at 20 °C using an excitation wavelength of 280 nm. Changes in the tryptophan (Trp) fluorescence spectra were monitored after incubation of 5 µM of each peptide with increasing concentrations of liposomes. The suspensions were continuously stirred and were left to equilibrate for 10 min before recording the spectra. Fluorescence intensities were corrected by subtraction of the vesicle blank. A lipid titration of N-acetyltryptophanamide (NATA) was carried out at the same time. As described in ref. [31], the apparent mole fraction partition coefficients were determined by fitting the binding curves to the equation: F=fboundFmax+(1−fbound)F0 where F is the relative fluorescence intensity, F0 is the fluorescence intensity in the absence of lipid. fbound=KxL/(W+KxL) where Kx is the mole fraction partition coefficient, L is the lipid concentration, and W is the molar concentration of water (55.3 M at 25 °C).

[8] = Trp quenching by brominated phospholipids; format: physicochemical; conditions: 2 µM peptide, 200 µM Br-PC vs DOPC vesicles, 5 min, 25 °C, excitation 290 nm; three repeated assays
Method: Quenching of Trp by brominated phospholipid was performed using liposomes composed of 1,2-di-(9-10-dibromo) stearoyl-sn-glycero-3-phosphocoline (Br-PC) (Avanti Polar Lipids). As previously reported, this lipid has similar properties as unsaturated phosphatidylcholine chains due to the bulkiness of bromine residues. For this reason, liposomes of 1,2-dioleoyl-sn-glycero-3-phosphocholine (DOPC) were used for comparing the Trp fluorescence of peptides with brominated liposomes. Liposomes were prepared following the same procedure as described above. Comparatively, a concentration of 2 µM of peptides was added to 200 µM of lipid vesicles either BrPC or DOPC. After 5 min of incubation at 25 °C, fluorescence spectra were recorded with an excitation wavelength of 290 nm and emission from 300 to 450 nm. The fractional quenching was calculated as reported in ref. [33] by (F0 − F)/F0, where F0 is the fluorescence intensity at 340 nm for peptides added to DOPC liposomes and F for peptides added to Br-PC liposomes.

HIV-1 FP = conditions: donor:acceptor 1:1 ratio; cited from earlier work
Excerpt: The energy transfer efficiency between FP and E1 peptide at a donor:acceptor 1:1 ratio, was around 30% while the energy transfer efficiency between FP and DT-P2 was only 5%.

[9] = 1D 1H NMR in DPC micelles; format: physicochemical; conditions: NMR sample
Method: Nuclear magnetic resonance (NMR) spectra were recorded at 300 K on a Bruker Avance III console (Bruker Biospin, Germany) combined with a […] Oxford Instruments magnet (^1H 500 MHz), equipped with a 5 mm inverse cryogenically cooled triple-resonance TCI (^1H, ^13C, ^15N, and ^2H lock) cryoprobe with a z-axis magnetic field-gradient capability. For proton spectra acquisition, peptide samples were prepared by dissolving first lyophilized peptide in a small amount of DMSO-d6 and next, dissolution in detergent solution containing perdeuterated DPC-d38 (final molar ratio ~ 1:100, peptide/DPC 0.5:50 mM). […] The diffusion coefficient, D, was determined by fitting diffusion weighted intensities of selected peaks or integrals over a chosen range to the following equation1 I=I0exp{−γ^2g^2δ^2(Δ−δ/3)D}, where γ is the gyromagnetic ratio of proton and g, δ and Δ are the amplitude, duration and separation of the single pair of gradient pulses, respectively. […] The reason for DPC diffusion coefficients being higher than peptides values is likely due to a surplus of free monomeric DPC molecules (below cmc), so the diffusion coefficient measured for DPC has a relevant contribution of […], while the observed peptide resonances (and their diffusion coefficient) mainly correspond to DPC-bound peptide.

WILEYLWKVPFDFWRGVIGGGSLCDCPNGPWVWVPAFCQAVG-NH2 (cysteines drawn unpaired) [DT-P2]
EC50 [1]: 17.9 µM
EC50 [2]: 15.9 µM
EC50 [3]: 24.5 µM
EC50 [4]: 10.8 µM
EC50 [5]: 14 µM
EC50 [6]: 9.4 µM
apparent mole fraction partition coefficient KX [7]: 2.4 × 10^5

WILEYLWKVPFDFWRGVI-NH2 (C-terminus assumed) [E1]
Trp fluorescence upon titration with POPC liposomes / membrane partition (in words) ([7]; excitation 280 nm): partitioned stronger into lipid vesicles
apparent mole fraction partition coefficient KX [7]: 8.2 × 10^5
Trp quenching by brominated lipid vesicles / accessibility for the lipids (in words) [8]: highly quenched demonstrating greater peptide accessibility to the hydrophobic inner part of the lipid vesicles
energy transfer efficiency between FP and peptide (HIV-1 FP): around 30%

LCDCPNGPWVWVPAFCQAVGGGGSWILEYLWKVPFDFWRGVI-NH2 (cysteines drawn unpaired) [DT-P1]
EC50 [1]: 18.9 µM
EC50 [2]: 21.6 µM
EC50 [3]: 24.5 µM
EC50 [4]: 7.63 µM
EC50 [5]: 20.2 µM
EC50 [6]: 12.9 µM
effect of higher DMSO-d6 (from 3 to 13%) to increase solubility [9]: no improvement was observed
